Laboratory results reported in PubChem BioAssay (NCI).
“And” between values parts separate entries of the source, which are not always exact repeats. Equal entries are not always repeated.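 Tested at 5 concentrations; 48 h exposure; 96-well plates; endpoints linearly interpolated, else capped at highest concentration. At the GI50, growth is halved. TGI denotes the concentration required for complete inhibition of growth.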

What was measured:
Assay in all cases: growth of human tumour cells (NCI), 48 h
CCRF-CEM leukemia = tested on: CCRF-CEM leukemia
IGROV1 ovarian = tested on: IGROV1 ovarian
KM12 colon = tested on: KM12 colon
MOLT-4 leukemia = tested on: MOLT-4 leukemia
NCI-H23 lung = tested on: NCI-H23 lung
OVCAR-4 ovarian = tested on: OVCAR-4 ovarian
RXF 393 renal = tested on: RXF 393 renal
SK-MEL-2 melanoma = tested on: SK-MEL-2 melanoma
SK-MEL-28 melanoma = tested on: SK-MEL-28 melanoma
SK-MEL-5 melanoma = tested on: SK-MEL-5 melanoma

| SMILES | TGI (CCRF-CEM leukemia) [µM] | TGI (IGROV1 ovarian) [µM] | TGI (KM12 colon) | TGI (MOLT-4 leukemia) [µM] | TGI (NCI-H23 lung) [µM] | TGI (OVCAR-4 ovarian) [µM] | TGI (RXF 393 renal) [µM] | TGI (SK-MEL-2 melanoma) [µM] | TGI (SK-MEL-28 melanoma) [µM] | GI50 (CCRF-CEM leukemia) | GI50 (IGROV1 ovarian) | GI50 (KM12 colon) | GI50 (MOLT-4 leukemia) | GI50 (NCI-H23 lung) | GI50 (OVCAR-4 ovarian) | GI50 (RXF 393 renal) | GI50 (SK-MEL-2 melanoma) [µM] | GI50 (SK-MEL-28 melanoma) | GI50 (SK-MEL-5 melanoma) | TGI (SK-MEL-5 melanoma) [µM] |
| --- | --- | --- | --- | --- | --- | --- | --- | --- | --- | --- | --- | --- | --- | --- | --- | --- | --- | --- | --- | --- |
| C1=Nc2ccccc2Cn2nncc21 | > 100 | > 100 | > 100 µM | > 100 | > 100 | > 100 | > 100 | > 100 | > 100 |  |  |  |  |  |  |  |  |  |  |  |
| CC(C)(C)CNCCCNc1ccc(Cl)cc1 | > 100 | > 100 | > 100 µM | 25.6 | > 100 | > 100 | 74.3 | > 100 | 44.3 |  |  |  |  |  |  |  |  |  |  |  |
| Clc1ccc(C2CC(c3cccc(Nc4ccncc4)c3)=NN2c2ccccc2)cc1 (stereo unspecified) | 5.41 | 3.04 | 3.28 µM | 4.32 | 3.7 | 3.17 | 3.08 | 3.84 | 3.24 | 1.94 µM | 1.56 µM | 1.7 µM | 1.83 µM | 1.92 µM | 1.64 µM | 1.67 µM | 1.98 | 1.77 µM | 1.82 µM | 3.26 |
| CC(C)=CC1C(COC(=O)c2ccccc2Cl)C1(C)C (stereo unspecified) | > 100 | 57.6 | 99.1 µM | > 100 | > 100 | > 100 | 65.6 | > 100 | > 100 |  |  |  |  |  |  |  |  |  |  | 65.3 |
| O=[N+]([O-])c1ccc(NNN=Nc2ccc(-c3nc4ccccc4[nH]3)cc2)c([N+](=O)[O-])c1 | > 100 | > 100 | > 100 µM | > 100 | > 100 | > 100 | > 100 | 88.6 | > 100 |  |  |  |  |  |  |  |  |  |  | 87.5 |
| CCN(CC)CCCC(C)Nc1c2ccc(Cl)cc2nc2cc(Cl)ccc12 (stereo unspecified) | 7.47 | 19.5 | 9.29 µM | 5.31 | 20.8 | 9.68 | 13.2 | 29.2 | 15.8 |  |  |  |  |  |  |  |  |  |  | 10 |
| CC(C)C(=O)Nc1ccc(-c2nc(-c3cccc(OCCN4CCOCC4)c3)c(-c3ccnc(Br)c3)[nH]2)cc1 | > 100 | > 100 | > 100 µM | > 100 | 18 | > 100 | 2.91 | 5.54 | 5.02 | 3.27 µM | 3.75 µM | 3.2 µM | 2.31 µM | 3.12 µM | 4.46 µM | 1.24 µM | 2.21 | 1.98 µM | 1.79 µM | 3.25 |
| CC(C)NC(=O)OCc1nnn2c1CCC2 | > 100 | > 100 | > 100 µM | > 100 | > 100 | > 100 | > 100 | > 100 | > 100 |  |  |  |  |  |  |  |  |  |  | > 100 |
| COC1=CC(=O)c2c(c(COC(C)=O)cn2C)C1=O | 0.71 | 0.443 | 0.763 µM | 0.653 | 0.417 | 1.04 | 0.309 | 0.373 | 0.516 |  |  |  |  |  |  |  |  |  |  | 0.39 |
| Clc1ccc(OCc2nnc3sc(SSc4nn5c(COc6ccc(Cl)cc6)nnc5s4)nn23)cc1 | > 100 | > 100 | > 100 µM |  | > 100 | > 100 |  | > 100 | > 100 | 76.7 µM |  |  |  |  | 46.7 µM |  |  |  |  | > 100 |
| CC[C@@]1(O)C(=O)OCc2c1cc1n(c2=O)Cc2cc3c(CN(C)C)c(O)ccc3nc2-1 |  |  | 7.58 µM and 15.1 µM and 12.2 µM |  |  |  |  |  |  | < 0.01 µM and 0.0032 µM | 0.231 µM and 0.116 µM and 0.392 µM | 0.15 µM and 0.413 µM and 0.35 µM | < 0.01 µM and 0.00317 µM | 0.0088 µM and 0.0362 µM | 0.319 µM and 0.812 µM and 0.571 µM | 0.0188 µM and 0.0182 µM and 0.0775 µM |  | 0.299 µM and 1.36 µM | 0.0197 µM and 0.0191 µM and 0.0448 µM |  |
| CC1(CO)C(O)CCC2(C)C1C(O)CC1CC3CC12CCC3(O)CO (stereo unspecified) | > 225 | > 225 | > 225 µM | > 141 | > 225 | > 225 | > 225 | > 225 | > 225 |  |  |  |  |  |  |  |  |  |  | > 225 |
| CC(C(=O)NCCNC(=O)CCCC(=O)N(C)O)C(=O)NCCNC(=O)CCCC(=O)N(C)O | > 100 | > 100 | > 100 µM | > 100 | > 100 | > 100 | > 100 | > 100 | > 100 |  |  |  |  |  |  |  |  |  |  | > 100 |
| Fc1ccc(Nc2ncc(-c3cc(F)c(Cl)cc3Cl)s2)cc1Cl |  | > 100 | 13.3 µM | 18.6 | 28.1 | > 100 | 24.3 | 57.9 | > 100 |  | 26.2 µM | 2.69 µM | 5.46 µM | 14.1 µM | 26.5 µM | 6.67 µM | 22.8 | 79.9 µM | 12.3 µM | 25.9 |
| COc1cc(/C=N/N=C(\N)NO)ccc1O | > 100 | > 100 | > 100 µM | > 100 | > 100 | > 100 | > 100 | > 100 | > 100 |  |  |  |  |  |  |  |  |  |  | > 100 |
| CN(CC(=O)O)CC(=O)O | > 100 | > 100 | > 100 µM | > 100 | > 100 | > 100 | > 100 | > 100 | > 100 |  |  |  |  |  |  |  |  |  |  | > 100 |
| OCC(O)C(O)C(O)C(O)CNCCO/N=C1/C(c2c(O)[nH]c3ccccc23)=Nc2ccccc21 (stereo unspecified) | 30.2 | > 50 | > 50 µM | 36.3 | 23.7 | > 50 | 39.2 | 15.7 | 20.7 |  |  |  |  |  |  |  |  |  |  | 16.3 |
| Fc1cc(C2=Nn3c(CNc4ccc(Cl)cc4)nnc3S/C2=C\c2ccc(-c3ccc(Cl)cc3)o2)c(Cl)cc1Cl | > 100 | > 100 | > 100 µM | > 100 | > 100 |  | 61.4 | > 100 | > 100 |  |  |  |  |  |  |  |  |  |  | > 100 |
| CNCCCn1c2c(c3ccc(Cl)cc3c1=O)C(=O)c1cc(OC)cnc1-2 |  |  | 2.43 µM |  |  | 2.93 | 2.84 | 33.4 | 3.15 |  |  | 1.1 µM |  |  | 1.27 µM | 1.3 µM | 13.2 | 1.62 µM | 1.12 µM | 2.49 |
| O=S(=O)(Nc1nccs1)c1ccc([As](=O)(O)O)cc1 | > 100 | > 100 | > 100 µM | > 100 | > 100 | > 100 | > 100 | > 100 | > 100 |  |  |  |  |  |  |  |  |  |  | > 100 |
| O=c1ccc2c(Cl)cccc2o1 | > 100 | > 100 | > 100 µM | > 100 | > 100 | > 100 | > 100 | > 100 | > 100 |  |  |  |  |  |  |  |  |  |  | > 100 |
| COc1ccc(N2C(=O)C(=O)N(C)C2=O)c2ccccc12 | > 10 | > 10 | > 10 µM | > 10 | > 10 | > 10 | > 10 | > 10 | > 10 |  |  |  |  |  |  |  |  |  |  | > 10 |
| CSC1=C(SC)C(=O)c2cn(C)c(=O)cc2C1=O | 0.826 | 25.4 | 48.3 µM | 3.52 | 11.1 | 3.74 | 3.43 | 17.1 | 6.69 |  |  |  |  |  |  |  |  |  |  | 3.15 |
| O=[N+]([O-])c1ccc(Cc2nc3cc4ccccc4cc3[nH]2)cc1C(F)(F)F | > 100 |  | 30.3 µM | 87.7 | 25.7 | 46.8 | 32.1 | 44.4 | > 100 |  |  |  |  |  |  |  |  |  |  | 25.1 |
| OC(c1ccccc1)C1CC2C=CC1C2 (stereo unspecified) | > 100 | > 100 | > 100 µM | > 100 | > 100 | > 100 | > 100 | > 100 | > 100 |  |  |  |  |  |  |  |  |  |  | > 100 |
